Experimental findings from patent US12403184B2, “Compositions and methods for treating neurodegenerative disroders” (priority 2018, dated 2025) are described below.

Where no end group is shown, it is not given here.

Assay [1] relates to mitochondrial fusion and fission-related proteins. As to the kind of experiment: Total protein levels of mitochondrial dynamics proteins by western blot. It is filed as cell-based. As for the experimental part: (§1) Protein concentration was measured by protein assay dye reagents (Bio-rad). The protein was resuspended in Laemmli buffer, loaded on SDS-PAGE, and transferred onto nitrocellulose membranes. Membranes were probed with the indicated antibodies, followed by visualization with ECL. Representative blots have been cropped for presentation.

In assay [2] the test system is neurons derived from HD patients. The assay is described as follows: mitoROS (mitoSOX probe) in neurons derived from iPS cells. It is filed as cell-based, human. The method, then:
iPS cells from a normal subject and a HD patient (carrying 41 CAG repeats) were differentiated into neurons using the protocol from our previous studies. Briefly, the iPS cells were plated onto 6-well plates precoated with 2.5% Matrigel and allowed to reach 90% confluence in feeder-free medium. For the first 10 days, the cells were treated with SB431542 (10 μM; Tocris Bioscience) and Noggin (100 ng/ml) in Neural Media (NM) containing Neurobasal and DMEM (1:1), B-27 supplement minus vitamin A (50×, Invitrogen), N2 supplement (100×, Invitrogen), GlutaMax (Invitrogen, 100×), FGF2 ([…]) and EGF ([…]), and 100 units/ml penicillin and 100 μg/ml streptomycin). For the next 10 days, the cells were treated with human recombinant Sonic hedgehog (SHH, 200 ng/ml), DKK1 (100 ng/ml) and BDNF (20 ng/ml), and 10 μM Y27632 (Sigma) in neuronal differentiation medium containing Neurobasal and DMEM (1:3), B27, N2, GlutaMax, and PS. Cells were then switched to treatment with BDNF (20 ng/ml), ascorbic acid (200 μM, Sigma-Aldrich), cAMP (0.5 mM, Sigma-Aldrich), and Y27632 (10 μM) in neuronal differentiation medium. All growth factors were purchased from PeproTech (Rocky Hill, NJ, USA). […]
To examine mitochondrial superoxide production, the cells were stained with MitoSOX (Invitrogen, 5 μM for 10 min) at 37° C. […] At least 150 cells/group were counted and quantitated.

Assay [3] concerns striatum of R6/2 and YAC128 mice. The assay is described as follows: Western blot of striatal proteins in treated HD mice. Type of assay: in vivo, mouse. Particulars: for TFAM protein level / mtCO2 protein level: striatal mitochondria. As for the experimental part:
Cells were washed with cold phosphate-buffered saline (PBS) and incubated on ice in mitochondrial lysis buffer (250 mM sucrose, 20 mM HEPES-NaOH, pH 7.5, 10 mM KCl, 1.5 mM MgCl2, 1 mM EDTA, 1 mM EGTA, protease inhibitor cocktail, and phosphatase inhibitor cocktail) for 30 min. The cells were scraped and then disrupted 15 times by repeated aspiration through a 25-gauge needle. Mouse brains were minced and homogenized in mitochondrial lysis buffer to release mitochondria. The homogenates were spun at 800×g for 10 min at 4° C., and the resulting supernatants were spun at 12,000×g for 20 min at 4° C. The pellets were washed with lysis buffer and spun at 12,000×g again for 20 min at 4° C. The final pellets were suspended in lysis buffer containing 1% Triton X-100 and were mitochondrial-rich lysate fractions. The mitochondrial protein voltage-dependent anion channel (VDAC) was used as a loading control.
as §1
Systemic peptide treatment in HD mice. All randomization and peptide treatments were prepared by an experimenter not associated with behavioral and neuropathology analysis. Male R6/2 mice (Tg) and their age-matched wild-type littermates (Wt) (6-week-old) were implanted with a 28-day osmotic pump (Alzet, Cupertino CA, Model 2004) containing TAT control peptide or DA1 peptide, which delivered peptides at a rate of 1 mg/kg/day. Male YAC128 mice (Tg) and their age-matched wild-type littermates (WT) were treated with TAT control peptide or DA1 peptide (1 mg/kg/day) by Alzet osmotic pump starting from the age of 3 months. The pump was replaced once every month.
On the technique in general: Immunoblotting shows a protein as a band on a membrane.

The subject of a further assay is mtDNA. The assay is described as follows: mtDNA content in plasma of YAC128 mice by qPCR. Type of assay: in vivo, mouse. Particulars: YAC128 mice at the age of 6 months. The method, then: For isolation of DNA from mouse plasma, the QIAamp DNA Blood Mini Kit (QIAGEN) was used. Briefly, 100-200 μl mouse plasma was subjected to total DNA extraction. Then the eluted DNA was diluted (1:5) to perform the qPCR experiment.

Assay [4] has as its system activated microglial cells. As to the kind of experiment: Iba1 immunofluorescence of microglial activity in HD mouse striatum. It is filed as in vivo. The method, then:
For Iba1 immunofluorescence staining, mice were deeply anesthetized and transcardially perfused with 4% paraformaldehyde in PBS. Frozen brain sections (10 μm, coronal) were permeabilized with 0.1% Triton X-100 in TBS-T buffer followed by blocking with 5% normal goat serum. The brain sections were then incubated with anti-Iba1 antibody (1:500 dilution) for overnight at 4° C., followed by staining with Alex-488 anti-rabbit secondary antibody (1:2000 dilution). Iba1-immunopositive cells in the […] were quantitated by image J software.

Where [5] appears, read: YAC128 mice, 12 months old, striatal extracts.

As to “YGRKKRRQRRRGGEDKRKT-NH2 [DA1, YGRKKRRQRRR-GG-EDKRKT-NH2]”, the “other mitochondrial fusion and fission-related proteins (total protein levels)” value in assay [1] was “did not affect”. In addition, the mitoROS result in assay [2] is recorded as “decreased”. Besides, in assay [3] (R6/2 mice, 12 weeks old), the TFAM protein level entry is listed as “corrected” and the mtCO2 protein level entry was “corrected”. Besides, in assay [3] (YAC128 and wildtype mice, 6 months old, striatal mitochondrial lysates), the nuclear-encoded mitochondrial proteins entry is listed as “no observable effects”. In assay [3] (YAC128 mice, 6 months old), the TFAM protein level result is given as “corrected” and the mtCO2 protein level result is “corrected”. In assay [3] (setting [5]), the DARPP-32 protein level entry is “increased” and the PSD95 protein level entry is on record as “increased”. Besides, in assay [3] (YAC128 mouse striatum, until 12 months of age), the PGC1α protein levels result is given as “increased”. Further, the “increase of plasma mtDNA content” value in the assay with mtDNA is recorded as “abolished”. The “inflammatory response (Iba1-marked activated microglial cells)” value in assay [4] (HD R6/2 mouse striatum, 12 weeks old) is reported as “corrected”. In addition, the “inflammatory response (Iba1-marked activated microglial cells)” value in assay [4] (YAC128 mouse striatum, 6 months old) is recorded as “corrected”.
